Results on 13 compounds are retold here after PubChem BioAssay (NCI).

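Briefly, cells in 96-well plates were exposed to five compound concentrations for 48 h, and endpoints were estimated by linear interpolation. Abbreviation: GI50, concentration required for 50% inhibition of growth. The concentration for full growth arrest is given as TGI.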

Among the test systems are SK-MEL-28 melanoma; IGROV1 ovarian; HCC-2998 colon; CAKI-1 renal; OVCAR-3 ovarian; SW-620 colon; T-47D breast; DU-145 prostate; A498 renal; HOP-92 NSCLC.
Holding throughout (assay): growth of human tumour cells (NCI), 48 h

`COc1ccc(-c2ccc(/C=N/n3c(C)nn(CN4CCN(C)CC4)c3=S)o2)c([N+](=O)[O-])c1`: the GI50 was 50 µM in the assay on SK-MEL-28 melanoma; 63.4 µM in the assay with IGROV1 ovarian; 34.7 µM with HCC-2998 colon; 24.4 µM in the assay with CAKI-1 renal; 16.2 µM in the assay on OVCAR-3 ovarian; above 100 µM with SW-620 colon. Moreover, the figures for the GI50 with T-47D breast and with DU-145 prostate were 45.6 µM and above 100 µM, respectively. Further, the TGI in the assay with SK-MEL-28 melanoma is above 100 µM; in the assay on IGROV1 ovarian it was above 100 µM; with HCC-2998 colon, above 100 µM; in the assay with CAKI-1 renal it was above 100 µM; in the assay with OVCAR-3 ovarian, 38.1 µM; in the assay with SW-620 colon it was above 100 µM. Further, the TGI in the assay with T-47D breast and in the assay on DU-145 prostate was above 100 µM in each case.

Regarding `CCC(C(=O)[O-])C(=O)[O-].CCC(C(=O)[O-])C(=O)[O-].N.N.NCCCCCCN.[Pt+4].[Pt+4]`, the GI50 in the assay on SK-MEL-28 melanoma is 6.58 µM; with IGROV1 ovarian, 8.13 µM; in the assay on A498 renal, 8.85 µM; with HCC-2998 colon, 8.29 µM; in the assay with HOP-92 NSCLC, 1.24 µM; with CAKI-1 renal, 2.25 µM. The results for the GI50 in the assay with OVCAR-3 ovarian and with SW-620 colon were 9 µM and 0.9 µM, respectively. In addition, the TGI in the assay with SK-MEL-28 melanoma was 14.6 µM; with IGROV1 ovarian, 18.7 µM; in the assay on A498 renal, 18.1 µM; in the assay with HCC-2998 colon, 15.8 µM; in the assay with HOP-92 NSCLC, 3.87 µM; in the assay on CAKI-1 renal, 4.97 µM. For the same compound, the results for the TGI with OVCAR-3 ovarian and in the assay on SW-620 colon were 16.3 µM and 1.71 µM, respectively.

For the compound `Cc1ccc(C)c(NC(=O)CCc2nc(=S)[nH][nH]2)c1`, the TGI with SK-MEL-28 melanoma, in the assay on IGROV1 ovarian, with A498 renal, with HCC-2998 colon, with HOP-92 NSCLC and in the assay on CAKI-1 renal was above 100 µM throughout. Further, the TGI with OVCAR-3 ovarian was above 100 µM; in the assay with SW-620 colon, 33 µM.

As to `O=C(O)Cn1c(=O)[nH]c(=O)c2c1ncn2Cc1ccccc1`, the TGI with SK-MEL-28 melanoma, with A498 renal, in the assay on HOP-92 NSCLC, in the assay with CAKI-1 renal, in the assay on OVCAR-3 ovarian and in the assay with SW-620 colon was above 100 µM each time.

For `CC(C)(C)C(=O)O[C@@H]1COC2C(O)COC21` (some centres not stated), the TGI with SK-MEL-28 melanoma, in the assay on IGROV1 ovarian, in the assay on HCC-2998 colon, with HOP-92 NSCLC, with CAKI-1 renal and with OVCAR-3 ovarian was above 100 µM each time. For the same compound, in the assay with SW-620 colon, the TGI was above 100 µM.

Consider `CN(C)c1ccc(/C=N\N2C(=O)c3ccccc3C2=O)cc1`, for which the TGI with SK-MEL-28 melanoma, in the assay with IGROV1 ovarian, with A498 renal, in the assay with HCC-2998 colon, in the assay on HOP-92 NSCLC and with CAKI-1 renal was above 100 µM each time. The TGI with OVCAR-3 ovarian and in the assay on SW-620 colon was above 100 µM throughout.

For `CC(=O)[O-].O=C([CH-]C(=O)c1ccccc1)c1ccccc1.O=C([CH-]C(=O)c1ccccc1)c1ccccc1.[Y+3]`, the GI50 in the assay on SK-MEL-28 melanoma was 8.34 µM; in the assay with IGROV1 ovarian it was 6.94 µM; in the assay on A498 renal, 16.7 µM; with HCC-2998 colon it was 5.72 µM; in the assay with HOP-92 NSCLC, 4.04 µM; with CAKI-1 renal, 4.53 µM. Besides, the GI50 was 3.12 µM in the assay with OVCAR-3 ovarian and 6.18 µM in the assay with SW-620 colon. Further, the TGI in the assay with SK-MEL-28 melanoma was 39 µM; with IGROV1 ovarian, 35.8 µM; in the assay on A498 renal, 41.1 µM; in the assay on HCC-2998 colon it was 19.7 µM; with HOP-92 NSCLC, 18.9 µM; in the assay on CAKI-1 renal, 19.4 µM. Besides, the figures for the TGI with OVCAR-3 ovarian and in the assay on SW-620 colon were 15.8 µM and 46 µM, respectively.

Consider `N#CC1(C=O)c2ccccc2C=CN1C(=O)c1ccccc1` (configuration not stated), for which the TGI in the assay with SK-MEL-28 melanoma is above 100 µM; in the assay with IGROV1 ovarian, above 100 µM; in the assay on A498 renal, above 100 µM; in the assay with HCC-2998 colon, above 100 µM; in the assay with HOP-92 NSCLC, 65.9 µM; in the assay with CAKI-1 renal, above 100 µM. For the same compound, the TGI was determined as 52.8 µM in the assay with OVCAR-3 ovarian and 19.3 µM in the assay with SW-620 colon.

Regarding `COCCOCC(=O)N(CCn1ccc(NC(c2ccccc2)(c2ccccc2)c2ccccc2)nc1=O)CCn1cnc2nc(N)[nH]c(=O)c21`, the TGI in the assay with SK-MEL-28 melanoma, in the assay on IGROV1 ovarian, in the assay on A498 renal, in the assay on HCC-2998 colon, in the assay on HOP-92 NSCLC and in the assay with CAKI-1 renal was above 100 µM throughout. Moreover, the TGI in the assay with OVCAR-3 ovarian and in the assay on SW-620 colon was above 100 µM throughout.

With `CCCCC#CC#Cc1cccc(=O)o1`, the GI50 in the assay with SK-MEL-28 melanoma was 14.4 µM; with IGROV1 ovarian, 30.7 µM; with HOP-92 NSCLC, 33.2 µM; in the assay on CAKI-1 renal, 22.5 µM; with OVCAR-3 ovarian, 23.9 µM; with SW-620 colon, 18.7 µM. For the same compound, the GI50 in the assay on T-47D breast was 8.34 µM; in the assay on DU-145 prostate, 21.9 µM. Also, the TGI is 29 µM in the assay on SK-MEL-28 melanoma; 75.8 µM in the assay with IGROV1 ovarian; above 100 µM in the assay on HOP-92 NSCLC; 60 µM in the assay on CAKI-1 renal; 69.6 µM in the assay on OVCAR-3 ovarian; 53.1 µM in the assay on SW-620 colon. The TGI with T-47D breast came out at 25.7 µM; in the assay with DU-145 prostate it was 50.8 µM.

As to `Cc1nc(Nc2ccc([N+](=O)[O-])cc2)sc1C(/C=C/c1ccc(N(C)C)cc1)=N/NC(=O)c1ccccc1`, the TGI with SK-MEL-28 melanoma was above 100 µM; in the assay on IGROV1 ovarian, above 100 µM; with HCC-2998 colon, above 100 µM; in the assay on HOP-92 NSCLC, 52.7 µM; in the assay on CAKI-1 renal, above 100 µM; in the assay on OVCAR-3 ovarian, above 100 µM. The compound also showed a TGI in the assay with SW-620 colon above 100 µM.

In the case of `O=C(NNC(=O)c1cc(/C=C/c2cccc([N+](=O)[O-])c2)[nH]c(=S)n1)Nc1ccc(Cl)cc1`, the TGI with SK-MEL-28 melanoma, in the assay with IGROV1 ovarian, in the assay on A498 renal, in the assay on HCC-2998 colon and in the assay on OVCAR-3 ovarian was above 100 µM throughout.

For the compound `O=C1C2c3[nH]c4ccccc4c3[C@@H]3CCCCC3C2C(=O)N1c1ccccc1` (some centres not stated), the TGI came to 33 µM in the assay with SK-MEL-28 melanoma; 74.8 µM with IGROV1 ovarian; 71.9 µM with A498 renal; 36.5 µM in the assay with HCC-2998 colon; 30.1 µM in the assay on OVCAR-3 ovarian; 38.8 µM in the assay on SW-620 colon.
